# Reference: patent publication US20240207212A1, “METHODS AND COMPOSITIONS FOR TREATING INFLAMMATION” (priority 2017, published 2024)
# How the values were obtained:
# MRP1 = MRP1 (Homo sapiens, UniProt P33527); details: low affinity substrate of MRP1; cited from earlier work
# [1] = tested on: HXA3-induced neutrophil migration; experiment: 96-well neutrophil migration assay (modified Boyden chamber, cell-free); assay type: cell-based, human; details: for AMEND inhibitory activity of purified compounds in the cell-free migration assay: FIG. 2F
# Description: Supernatants from T84 epithelial monolayers were enriched for lipids and tested for ability to inhibit HXA3-induced migration in a 96-well modified Boyden chamber assay (FIG. 2A). In order to compare across experiments with different donors, migration values within individual experiments were normalized to enriched HXA3 with vehicle treatment. […] FIG. 2C performed as in FIG. 2A, but prior to use in the migration assays enriched T84 supernatants were pretreated with FAAH or MAGL at 37 °C for 30 min. […] Commercially available endocannabinoids and related compounds were tested in the 96 well migration assay (FIG. 2F). Compounds were used at the highest concentration at which they were soluble in PBS. Data are mean+/−SEM of at least 3 independent experiments, *=p<0.05 and **=p<0.01 by one-way ANOVA.
# 96-well neutrophil migration.
# Purified compounds used in migration assays.
# [2] = tested on: C57BL/6 mice infected with Streptococcus pneumoniae; experiment: S. pneumoniae lung infection of mice with MRP2 inhibition; assay type: in vivo
# Description: FIGS. 19A-19E. MRP2 inhibition in vivo. Using an in vitro model of neutrophil migration, we examined the results of MRP2 inhibition. MRP2 inhibition via Probenecid treatment results in a reduction of neutrophils migrating in a basolateral-to-apical direction (FIG. 19A). Following this in vitro result, C57/B16 mice were treated with either PBS or Probenecid and subsequently infected with Streptococcus pneumoniae. Mice treated with probenecid had fewer Cd11b-positive/Ly6g-positive cells (neutrophils) in the bronchoalveolar lavage (BAL) isolated from infected lungs (FIG. 19B).
# S. pneumoniae infection under conditions where MRP2 function was impeded with probenecid was examined. C57BL/6 mice were infected with between 1×10^5 and 3×10^5 bacteria via the trachea, leading to lobar pneumonia and progressing to bacteremia and sepsis, after which the mice succumb to infection. Probenecid was delivered 3 hours prior to infection as a primer and again at 3-hours post-infection.
# [3] = tested on: neutrophil migration across NIH-H292 cells infected with Streptococcus pneumoniae; experiment: In vitro PMN transepithelial migration across H292 monolayers infected with S. pneumoniae; assay type: cell-based, human; details: 100 μM pretreatment before infection with 10 MOI Streptococcus pneumoniae, vs mock-treated (FIG. 19A, FIG. 20D)
# Description: S. pneumoniae can induce PMN transepithelial migration across model lung epithelia where a well-established in vitro model system is utilized. Briefly, H292 cells are seeded on permeable supports to form a barrier, thereby mimicking the in vivo architecture. Freshly isolated human neutrophils are then applied to the basolateral chamber of the transwell, allowing the neutrophils to transverse the epithelial layer in response to chemoattractants released by the epithelium.
# Using an in vitro model of neutrophil (PMN) migration, we examined the results of MRP2 inhibition. NIH-H292 cells were incubated with 100 μM of the MRP2 inhibitor Probenecid (horizontal striped) or mock treated with PBS (black) before infection. Both control and probenecid treated cells were then washed and infected with 10 MOI Streptococcus pneumoniae. Neutrophils were placed in the basolateral chamber of the membrane construct and allowed to migrate post-infection. Neutrophils that have traveled to the apical chamber were quantified with a modified myeloperoxidase assay against a standard number of neutrophils. Shown in FIG. 20D is a representative data set that has been repeated at least 3 times. […] Uninfected cells are represented in white, labeled “Buffer”. Statics performed using unpaired T-test.
# P-gp = P-gp (Homo sapiens, UniProt P08183); experiment: Semi-quantitative MS analysis of enriched AMEND preparations from control and P-gp knockdown T84 cells; details: for Average (relative abundance, normalized to anandamide-d8 standard): anandamide-d8 standard at 1 μg/μL
# P-gp, sequence (P08183 whole entry): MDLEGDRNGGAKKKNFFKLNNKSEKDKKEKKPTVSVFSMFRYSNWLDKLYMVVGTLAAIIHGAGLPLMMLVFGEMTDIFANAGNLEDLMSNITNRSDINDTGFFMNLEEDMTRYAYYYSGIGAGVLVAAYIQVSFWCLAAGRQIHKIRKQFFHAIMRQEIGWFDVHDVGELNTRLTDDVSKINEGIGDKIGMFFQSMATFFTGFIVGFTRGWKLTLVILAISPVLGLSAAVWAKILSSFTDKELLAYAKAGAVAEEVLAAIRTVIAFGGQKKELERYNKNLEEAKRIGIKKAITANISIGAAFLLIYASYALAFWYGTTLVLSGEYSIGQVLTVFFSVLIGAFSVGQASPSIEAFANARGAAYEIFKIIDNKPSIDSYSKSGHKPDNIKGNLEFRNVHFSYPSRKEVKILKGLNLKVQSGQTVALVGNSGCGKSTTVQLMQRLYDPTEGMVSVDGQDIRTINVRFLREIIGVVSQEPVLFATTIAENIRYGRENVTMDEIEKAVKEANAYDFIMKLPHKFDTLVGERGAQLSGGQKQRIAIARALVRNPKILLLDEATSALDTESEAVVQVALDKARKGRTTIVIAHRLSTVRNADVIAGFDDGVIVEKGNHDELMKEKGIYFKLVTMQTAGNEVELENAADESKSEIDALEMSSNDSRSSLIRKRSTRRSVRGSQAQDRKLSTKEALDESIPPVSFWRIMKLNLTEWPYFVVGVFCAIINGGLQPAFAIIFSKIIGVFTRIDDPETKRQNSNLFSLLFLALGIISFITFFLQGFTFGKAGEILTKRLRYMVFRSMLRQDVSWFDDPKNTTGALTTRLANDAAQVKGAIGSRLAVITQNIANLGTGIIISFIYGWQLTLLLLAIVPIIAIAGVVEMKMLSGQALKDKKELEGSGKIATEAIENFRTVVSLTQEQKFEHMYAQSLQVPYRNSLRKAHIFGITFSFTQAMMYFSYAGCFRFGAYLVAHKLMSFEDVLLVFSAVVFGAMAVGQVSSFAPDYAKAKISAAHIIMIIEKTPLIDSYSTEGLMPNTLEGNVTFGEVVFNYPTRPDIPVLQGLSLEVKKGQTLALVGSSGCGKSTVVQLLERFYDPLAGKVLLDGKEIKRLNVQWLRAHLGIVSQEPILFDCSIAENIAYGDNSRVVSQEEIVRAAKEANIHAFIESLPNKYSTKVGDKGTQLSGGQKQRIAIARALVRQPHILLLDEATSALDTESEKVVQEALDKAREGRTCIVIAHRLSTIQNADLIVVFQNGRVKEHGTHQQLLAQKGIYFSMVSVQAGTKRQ
# From the text: Generation of P-gp knockdown T84 cell lines. Purified DNA containing shRNA constructs targeting the mdr1a gene in a pLK0.1 plasmid background was obtained from the UMass RNAi core. Constructs were as follows: B4 (Clone ID: TRCN0000059683), B5 (Clone ID: TRCN0000059684), B6 (Clone ID: TRCN0000059685), B7 (Clone ID: TRCN0000059686), B8 (Clone ID: TRCN0000059687). Lentiviruses were produced by transfecting packaging cells (293T) with psPAX2, pMD.2G, and pLK0.1 plasmid constructs, using Trans-IT-LT1 lipid (Mirus Bio). After 48 hours, lentiviral supernatants were harvested, combined with 8 μg/mL polybrene (Sigma-Aldrich) and applied to T84 cells in 20% confluent monolayers. This process was repeated 24 hours later, and 48 hours following the second transfection, resistant cells were selected with 5 μg/mL puromycin.
# Production of enriched AMEND. T84 cells were grown as confluent monolayers in 162 cm^2 flasks and equilibrated in Hanks Buffered Saline Solution with Mg^2+/Ca^2+ (HBSS+/+) at 37° C., 5% CO2. […] Cell supernatants collected over the course of five hours were pooled from 30 flasks, lyophilized, resuspended in water and ultrafiltered through Amicon 1,000-Da cutoff membrane (Millipore) with N2 positive pressure. Samples were captured on a C18 Bakerbond® SepPak column, washed with water and hexane, eluted with methanol, dried under N2 gas and stored at −80° C. Before use in migration experiments, samples were resuspended in HBSS+/+as needed. For screening in the DiscoveRx GPCR β-arrestin activity assay (Fremont, CA), samples were resuspended in PBS to provide a 1000× solution for screening.
# LC/MS analysis of AMEND. MeOH-eluted preparations as above were dried under a stream of N2 (g), re-suspended in MeOH/buffer and separated by HPLC using a Vydac (Hesperia, CA) C18 (10 um; 300 Å) semi-preparative column ([…]). Active AMEND fractions were characterized by HPLC/Mass spectrometry (Genesis C18 (4 um, 120 Å) analytical HPLC column (4.6×150 mm) equilibrated with 5 mM triethylamine acetic acid (pH 7.2) with the effluent analyzed by using a Finnigan LCQDeca electrospray mass spectrometer.
# Selected samples were analyzed for high mass accuracy determination and solubilized in 50:50 acetonitrile:H2O with 0.2% formic acid. A MAXIS-HD ultra-high resolution quadrupole time-of-flight (UHR-ESI-QTOF) mass spectrometer (Bruker Daltonik GmbH, Bremen, Germany) was used; this was coupled to a syringe driver (Hamilton, Bonaduz, Switzerland) with the sample solution being infused at a rate of 3 μL/min.
# Nitrogen acted as the nebulizing gas, applied at a pressure of 2 bar. The drying gas was also nitrogen, supplied at a flow rate of 8 L/min and a temperature of 200° C. Positive ion mode was used with a corresponding capillary voltage of −4500V. Only full scan data was acquired. For each batch of samples a solution of 5 mM sodium formate clusters was also analysed. This acted as an external data file calibrant over the mass range 75-1000 m/z. The recalibrated detected mass and isotope pattern were used in the FindFormula tool to generate a list of potential theoretical formulae within 2 mDa of the detected mass. The detected isotope pattern was used to sort this list.
# Data acquisition and automated processing was controlled via Compass OpenAccess 1.7 software (Bruker Daltonik GmbH, Bremen, Germany), and data processing was carried out using DataAnalysis 3.4 (Bruker Daltonik GmbH, Bremen, Germany). At each step care was taken to avoid sample degradation and oxidation by maintaining them on ice and under N2 gas as much as possible. Relative quantification by ion intensities was performed by the summation of intensities for protonated and sodiated ions to compensate for possible variation in adduct formation due to varying biological sodium levels.
# With respect to Table 2, semi-quantitative MS analysis was performed to compare enriched AMEND preparations from control T84 cells to those with shRNA-mediated P-gp knockdown (B4-mdr1a and B5-mdr1a).
# [4] = used at 0.01 mg/mL (highest concentration soluble in PBS, diluted 1:10)
# [5] = B4-mdr1a P-gp knockdown T84 cells
# [6] = B5-mdr1a P-gp knockdown T84 cells
# [7] = B4-mdr1a P-gp knockdown vs control T84 cells
# [8] = B5-mdr1a P-gp knockdown vs control T84 cells
# MRP1, sequence (P33527 whole entry): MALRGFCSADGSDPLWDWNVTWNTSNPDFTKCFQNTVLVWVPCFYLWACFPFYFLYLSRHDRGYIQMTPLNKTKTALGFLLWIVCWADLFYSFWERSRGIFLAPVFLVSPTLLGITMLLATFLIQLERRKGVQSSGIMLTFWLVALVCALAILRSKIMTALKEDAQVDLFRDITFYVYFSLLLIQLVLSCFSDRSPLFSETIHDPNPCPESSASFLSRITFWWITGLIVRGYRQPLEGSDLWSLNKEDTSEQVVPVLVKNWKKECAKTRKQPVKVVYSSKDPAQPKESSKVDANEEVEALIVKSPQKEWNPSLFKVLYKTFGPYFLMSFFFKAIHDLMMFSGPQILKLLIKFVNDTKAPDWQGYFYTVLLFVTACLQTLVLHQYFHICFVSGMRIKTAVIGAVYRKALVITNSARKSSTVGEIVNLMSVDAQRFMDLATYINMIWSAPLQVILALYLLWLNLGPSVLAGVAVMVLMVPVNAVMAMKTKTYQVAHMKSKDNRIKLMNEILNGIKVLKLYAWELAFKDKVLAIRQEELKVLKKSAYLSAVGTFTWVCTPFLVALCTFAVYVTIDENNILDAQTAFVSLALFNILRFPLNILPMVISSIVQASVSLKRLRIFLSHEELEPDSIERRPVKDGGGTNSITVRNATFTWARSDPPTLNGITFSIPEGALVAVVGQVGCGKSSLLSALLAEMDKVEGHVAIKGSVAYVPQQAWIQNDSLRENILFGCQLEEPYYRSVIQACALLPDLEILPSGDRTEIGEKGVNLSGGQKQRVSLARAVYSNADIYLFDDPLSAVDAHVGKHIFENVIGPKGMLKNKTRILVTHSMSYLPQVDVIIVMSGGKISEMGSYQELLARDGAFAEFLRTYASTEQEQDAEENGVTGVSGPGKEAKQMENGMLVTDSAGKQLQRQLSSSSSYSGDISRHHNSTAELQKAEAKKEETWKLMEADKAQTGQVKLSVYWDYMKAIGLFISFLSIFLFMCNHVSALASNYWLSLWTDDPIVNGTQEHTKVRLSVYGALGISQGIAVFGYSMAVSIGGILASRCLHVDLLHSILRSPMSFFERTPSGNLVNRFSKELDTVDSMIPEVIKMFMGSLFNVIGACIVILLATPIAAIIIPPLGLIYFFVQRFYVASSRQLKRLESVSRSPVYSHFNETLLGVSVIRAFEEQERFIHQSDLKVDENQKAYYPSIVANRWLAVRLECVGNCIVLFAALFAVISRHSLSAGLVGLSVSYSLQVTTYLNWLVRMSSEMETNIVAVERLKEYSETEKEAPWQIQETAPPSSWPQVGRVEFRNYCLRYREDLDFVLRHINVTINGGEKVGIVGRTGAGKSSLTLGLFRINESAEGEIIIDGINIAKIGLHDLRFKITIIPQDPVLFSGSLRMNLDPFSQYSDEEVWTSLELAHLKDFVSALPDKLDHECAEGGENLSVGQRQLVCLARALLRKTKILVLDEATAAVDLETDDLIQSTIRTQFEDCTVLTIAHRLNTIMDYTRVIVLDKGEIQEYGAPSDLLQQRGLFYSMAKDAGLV
compound,measurement,setting,value
N[C@@H](CCC(=O)N[C@@H](CS)C(=O)NCC(=O)O)C(=O)O [Glutathione],Km,MRP1,1000 to 5000 µM
CCCCC[C@H](O)/C=C/C=C\C=C\C=C\[C@@H](O)[C@@H](O)CCCC(=O)O [Lipoxin A4],inhibitory activity on HXA3-induced migration after treatment with FAAH,"[1]; pretreated with FAAH at 37°C for 30 min, Lipoxin used at 10 nM (FIG. 2C, FIG. 8)",not sensitive
same,inhibitory activity on HXA3-induced migration after treatment with MAGL,"[1]; pretreated with MAGL at 37°C for 30 min, Lipoxin used at 10 nM (FIG. 2C, FIG. 8)",not sensitive
"CCCCCCCC/C=C\CCCCCCCC(=O)NCCO [Oleoyl ethanolamide (OEA), Oleoyl ethanolamide]",AMEND inhibitory activity of purified compounds in the cell-free migration assay,[1]; [4],significant inhibitory activity
CCCN(CCC)S(=O)(=O)c1ccc(C(=O)O)cc1 [Probenecid],reduction in bacteremia,"[2]; 48 post-infection, no longer statistically significant (FIG. 19C)",10 fold
same,number of bacteria in the lung,[2]; 48 hours post-infection,the same
same,other granulocytes in the mouse lung,[2]; Cd11b+/Cd45+/Ly6g- granulocytes (FIG. 19D),no reduction
same,"lower CFU in the blood of mice that developed bacteremia, compared to PBS-treated mice",[2]; D1 post-infection (FIG. 19C),approximately 10 fold
same,cases of bacteremia,"[2]; D1 post-infection, vs PBS-treated mice (FIG. 19C)",fewer cases
same,fewer neutrophils in bronchoalveolar lavage fluid (BALF) than PBS-treated mice,"[2]; Day 1 post-infection, delivered 3 hours prior to and 3 hours post-infection (FIG. 19B)",35%
same,difference in the bacterial CFU in mice that did not develop bacteremia,[2]; failed to reach statistical significance (FIG. 19E),approximately 2 fold
same,number of neutrophils migrating basolateral-to-apical across infected H292 monolayers,[3],effectively reduced
same,number of neutrophils migrating basolateral-to-apical across infected H292 monolayers,[3]; listed as probenecid,significantly fewer
"CCCCC/C=C\C/C=C\C/C=C\C/C=C\CCCC(=O)NCCO [Anandamide (AEA), Arachidonoyl ethanolamide]",AMEND inhibitory activity of purified compounds in the cell-free migration assay,[1]; [4],significant inhibitory activity
CCCCC/C=C\C/C=C\C/C=C\C/C=C\CCCC(=O)NCCc1ccc(O)c(O)c1 [N-Arachidonoyl Dopamine],"Average (relative abundance, normalized to anandamide-d8 standard)",P-gp; [5],1.97
same,"Average (relative abundance, normalized to anandamide-d8 standard)",P-gp; [6],1.90
same,"Average (relative abundance, normalized to anandamide-d8 standard)",P-gp; control T84 cells,0.00
"CC/C=C\C/C=C\C/C=C\CCCCCCCC(=O)NCCO [α-LEA, α-Linolenoyl Ethanolamide]",AMEND inhibitory activity of purified compounds in the cell-free migration assay,"[1]; used at 0.005 mg/mL (highest concentration soluble in PBS, diluted 1:10)",significant inhibitory activity
CCCCC/C=C\C/C=C\C/C=C\C/C=C\CCCCOC(CO)CO [Noladin ether],"Average (relative abundance, normalized to anandamide-d8 standard)",P-gp; [5],154.03
same,% of Control,P-gp; [7],461%
same,"Average (relative abundance, normalized to anandamide-d8 standard)",P-gp; [6],56.23
same,% of Control,P-gp; [8],168%
same,"Average (relative abundance, normalized to anandamide-d8 standard)",P-gp; control T84 cells,33.43
"CCCCC/C=C\C/C=C\C/C=C\C/C=C\CCCC(=O)OC(CO)CO [2-Arachidonoyl Glycerol (2-AG), 2-arachidonoyl glycerol]","Average (relative abundance, normalized to anandamide-d8 standard)",P-gp; [5],32.17
same,% of Control,P-gp; [7],91%
same,"Average (relative abundance, normalized to anandamide-d8 standard)",P-gp; [6],29.47
same,% of Control,P-gp; [8],83%
same,"Average (relative abundance, normalized to anandamide-d8 standard)",P-gp; control T84 cells,35.53
